The Km is the substrate concentration at which the rate is half of its maximum. In general, kcat refers to the number of substrate molecules converted per active site and unit of time at saturation. A word on the kcat/Km: it is the turnover number divided by the Michaelis constant.

Results on 1 compound are retold here after paper PMC7278358, “Kinetic parameters of human aspartate/asparagine–β-hydroxylase suggest that it has a possible function in oxygen sensing” (The Journal of Biological Chemistry, 2020).

Where “and” joins values, the source holds several entries; their conditions need not be identical. Equal entries are not always repeated. Where two headings read alike, the source gives them in different places.

Experiment [1] has as its system collagen prolyl 4-hydroxylases. As to conditions: read-out: Km app(O2); cited from earlier work. The text has this: (§1) At higher partial pressures of O2, the standard deviation among independent quadruplicates increased slightly because of efficient peptide hydroxylation requiring short reaction times; however, maximum velocities (vmax^app) were still similar within experimental error, indicating good data quality and reproducibility (Fig. S7). The AspH Km^app for O2 is high compared with the values reported for most oth ...

A further experiment has as its system PHD2. Conditions: same experimental setup, cited from earlier work; for Km: read-out: Km app for O2.
Excerpt: as §1

The next experiment relates to KDM6A. As to conditions: read-out: Km app(O2); cited from earlier work.
Excerpt: as §1

Experiment [2] relates to human phytanoyl-CoA hydroxylase. As to conditions: read-out: Km app(O2); cited from earlier work.
Excerpt: as §1

Another experiment concerns KDM4E. As to conditions: read-out: Km app(O2); cited from earlier work.
Excerpt: as §1

In a further experiment the test system is FIH. As to conditions: peptide substrate HIF-1α CAD35mer, same experimental setup, cited from earlier work.
Excerpt: as §1

In the next experiment the test system is KDM4C. As to conditions: read-out: Km app(O2); cited from earlier work.
Excerpt: as §1

A further experiment has as its system KDM4A. Conditions: cited from earlier work.
Excerpt: as §1

Another experiment deals with T1, human His6–AspH315–758 (Homo sapiens, UniProt Q12797).
T1 construct: a pET-28a(+) vector encoding for N-terminal His6-tagged AspH315–758 (His6–AspH315–758) was transformed into Escherichia coli BL21 (DE3) cells; made in house; host or cells: Escherichia coli BL21 (DE3)
T1 sequence (Q12797 315-758): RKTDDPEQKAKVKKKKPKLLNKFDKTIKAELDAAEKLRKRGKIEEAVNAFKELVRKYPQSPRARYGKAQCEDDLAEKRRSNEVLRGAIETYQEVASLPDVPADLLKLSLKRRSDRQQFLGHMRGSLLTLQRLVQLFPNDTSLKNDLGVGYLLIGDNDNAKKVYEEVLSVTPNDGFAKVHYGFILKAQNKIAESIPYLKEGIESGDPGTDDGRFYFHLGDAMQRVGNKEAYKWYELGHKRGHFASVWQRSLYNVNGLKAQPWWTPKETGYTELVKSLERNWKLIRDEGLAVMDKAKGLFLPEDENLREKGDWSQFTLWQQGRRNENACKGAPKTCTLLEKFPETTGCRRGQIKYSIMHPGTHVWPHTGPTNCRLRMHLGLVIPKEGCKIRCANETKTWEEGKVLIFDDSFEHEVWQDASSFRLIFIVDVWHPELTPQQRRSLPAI
Nature of the experiment: AspH O2 dependence (variable O2 partial pressures, SPE-MS). Type of experiment: biochemical. Conditions: n = 4. On the procedure:
For determining vmax^app and Km^app of AspH for O2, 2.2 μM hFX–CP101–119 (65 μl) in 50 mM HEPES (pH 7.5) were exposed in a gas-tight glass vial to variable O2 concentrations (in nitrogen; Fig. S7) using a mass flow controller ([32]). After equilibrating the atmosphere, co-factor and co-substrates were added by syringe (1.5 μl of 4.7 mM LAA and 0.99 mM 2OG in MQ-grade water and 1.5 μl of 0.99 mM FAS in MQ-grade water) followed by 2.0 μl of 3.5 μM His6–AspH315–758 in 50 mM HEPES (pH 7.5) at 20 °C. The enzyme reaction was stopped after the indicated reaction time by the addition of 15% (v/v) aqueous formic acid (4 μl) and analyzed by SPE-MS using the configurations given above; the experiments were performed in independent quadruplicates. The data were analyzed as described, and the slopes of the initial reaction rates (Fig. S7) were fitted to a Michaelis–Menten plot using nonlinear regression (GraphPad Prism 5).

Setting [3] is: O2 varied, hFX–CP101–119 substrate.

As for `O=O` [O2], the Km was 40 µM in [1]; 460 ± 30 µM with PHD2 (peptide substrate HIF-1α CODD); above 450 µM in the experiment on PHD2 (peptide substrate HIF-1α NODD); 180 ± 40 µM with KDM6A; 93 ± 43 µM in [2]; 197 ± 16 µM in the experiment on KDM4E. In addition, the Km in the experiment on FIH (read-out: Km app for O2) was ~110 µM and 110 µM; in the experiment with KDM4C, 158 ± 13 µM; with KDM4A (peptide substrate H3_1–15K9me3, same experimental setup, read-out: Km app for O2), ~173 µM and 173 µM; in the experiment with KDM4A (read-out: Km app(O2)) it was 57 ± 10 µM; at human His6–AspH315–758 (O2 varied (in nitrogen), 100 μM LAA, 20 μM 2OG, 20 μM FAS, 2.0 μM hFX–CP101–119, 0.1 μM His6–AspH315–758, 50 mM HEPES pH 7.5, 20 °C, O2 % converted by y[μM] = 9.026·x[%], read-out: Km app for O2), ~426 µM and 426 µM. Besides, the kcat in the experiment on PHD2 (peptide substrate HIF-1α CODD) was 0.06 ± 0.01 s⁻¹; with PHD2 (peptide substrate HIF-1α NODD), 0.028 ± 0.001 s⁻¹; with FIH, 0.56 ± 0.04 s⁻¹; on human His6–AspH315–758 (setting [3]) it was 0.23 ± 0.04 s⁻¹. Also, the “Km app of AspH for O2 [%]” value on human His6–AspH315–758 (O2 in nitrogen, 100 μM LAA, 20 μM 2OG, 20 μM FAS, 2.0 μM hFX-CP101-119, 0.1 μM His6-AspH315-758, pH 7.5, 20 °C) is on record as 47.2 ± 8.1 % O2. Further, the vmax app at human His6–AspH315–758 (O2 varied (in nitrogen), 100 μM LAA, 20 μM 2OG, 20 μM FAS, 2.0 μM hFX–CP101–119, 0.1 μM His6–AspH315–758, 50 mM HEPES pH 7.5, 20 °C) stood at 0.0207 ± 0.0018 µM/s. Moreover, the kcat/Km at human His6–AspH315–758 (setting [3]) was 540 ± 130 M⁻¹ s⁻¹.
